# Data taken from publication PMC10120462, “Styrylquinazoline derivatives as ABL inhibitors selective for different DFG orientations” (Journal of Enzyme Inhibition and Medicinal Chemistry, 2023).
# Structures can show the parent of a compound that is named as a salt.
# What was measured:
# BRK = target: T1, BRK (Homo sapiens, UniProt Q13882); test: Tyrosine kinase assay (Kinase Selectivity System TK-2, ADP-Glo); assay type: biochemical; conditions: 1 h incubation, mean ± SD of four experiments
# T1 construct: purchased Promega
# NHDF = test: Cytotoxicity studies (MTS), normal fibroblasts; assay type: cell-based; conditions: 72 h, normal human fibroblasts, read-out: Antiproliferative activity IC50 NHDF
# From the text: (§1) In contrast, the other cell lines studied represent common cancers found in the human population. Nevertheless, these cell lines are characterised by a different landscape of kinase expression, as reported in[36]. In chronic leukaemia cells, an aberration of the Philadelphia chromosome is common in which a fragment of chromosome 9 is displaced to chromosome 22, leading to the formation of the oncogenic protein BCR-ABL. The altered structure of the protein leads to abnormal activity that promotes excessive growth and differentiation of cells even in the absence of growth factors, as well as inhibition of apoptosis and formation of metastases. Moreover, the status of the TP53 gene in leukaemia is not insignificant. Mutations of the TP53 gene occur in more than 50% of all cancers, leading to increased metastasis and an overall poor prognosis[38]^,[39]. The p53 protein encoded by this gene plays a pivotal role in controlling cell division or cell fate when damage is detected. […] Therefore, interaction between the signalling network of the BCR-ABL pathway and p53 often results in an impairment of p53 function and survival[43]^,[44]. […] Selectivity studies were performed on normal human fibroblast – NHDF cell line.
# (§2) M. Rusin from the Maria Sklodowska-Curie Memorial Cancer Centre and Institute of Oncology in Gliwice, Poland. […] G. Kramer-Marek from the Institute of Cancer Research in London, United Kingdom. The human suspension chronic myeloids leukaemia cell line K562 and the pancreatic ductal adenocarcinoma cell line PANC-1 were purchased from Merck. The normal human dermal fibroblasts cell line NHDF were obtained from PromoCell. All adherent cancer cell lines were cultured in Dulbecco’s Modified Eagle’s medium (DMEM) supplemented with 10% heat-inactivated foetal bovine serum – FBS (all from Merck). […] Each complete medium contained a mixture of two antibiotics - penicillin and streptomycin (1% v/v; Gibco). Cell lines were cultured at 37 °C with 5% CO2 humidified atmosphere.
# (§3) The assay was carried out after 72 h of incubation with different concentrations of the tested compounds. Then DMEM without phenol red was added to each well with CellTiter 96®AQueous One Solution-MTS (Promega) solution and incubated for 1 h or 3 h (PANC-1) at 37 °C. The optical densities of the samples were measured at 490 nm using a multi-plate reader (Synergy 4, BioTek). […] Each compound was tested in triplicate in a single experiment and each experiment was performed three or four times.
# BTK = target: T2, BTK (Homo sapiens, UniProt Q06187); test: Tyrosine kinase assay (Kinase Selectivity System TK-2, ADP-Glo); assay type: biochemical; conditions: 1 h incubation, mean ± SD of four experiments
# T2 construct: purchased Promega
# Lyn B = target: T3, Lyn B (Homo sapiens, UniProt P07948); test: as above; assay type: biochemical; conditions: 1 h incubation, mean ± SD of four experiments
# T3 construct: purchased Promega
# ABL = target: T4, ABL (Homo sapiens, UniProt P00519); test: as above; assay type: biochemical; conditions: 1 h incubation, mean ± SD of four experiments; for Inhibition of tyrosine kinase activity [%] ABL: 0.5 μM
# T4 construct: purchased Promega
# A549 = test: Cytotoxicity studies (MTS), antiproliferative activity; assay type: cell-based, human; conditions: Homo sapiens, A549; 72 h, MTS
# From the text: as §1, §2, §3
# HCT 116 p53−/− = test: as above; assay type: cell-based, human; conditions: Homo sapiens, HCT-116; 72 h, MTS
# From the text: as §1, §2, §3
# PANC-1 = test: as above; assay type: cell-based, human; conditions: Homo sapiens, PANC-1; 72 h, MTS
# From the text: as §1, §2, §3
# K562 = test: as above; assay type: cell-based, human; conditions: Homo sapiens, K562; 72 h, MTS
# From the text: as §1, §2, §3
# HCT 116 p53+/+ = test: as above; assay type: cell-based, human; conditions: Homo sapiens, HCT-116; 72 h, MTS
# From the text: as §1, §2, §3
# U-251 = test: as above; assay type: cell-based, human; conditions: Homo sapiens, U-251; 72 h, MTS
# From the text: as §1, §2, §3
# Lck = target: T5, Lck (Homo sapiens, UniProt P06239); test: Tyrosine kinase assay (Kinase Selectivity System TK-2, ADP-Glo); assay type: biochemical; conditions: 1 h incubation, mean ± SD of four experiments
# T5 construct: purchased Promega
# Fyn A = target: T6, Fyn A (Homo sapiens, UniProt P06241); test: as above; assay type: biochemical; conditions: 1 h incubation, mean ± SD of four experiments
# T6 construct: purchased Promega
# From the text: All newly synthesised derivatives were screened for their inhibitory potential towards eight non-receptor tyrosine kinases, such as ABL, BTK, BRK and Src family kinases, such as CSK, Lyn, Lck, Fyn and Src. […] To facilitate the analysis of the structure and enzymatic activity, all tested compounds were divided into four subgroups based on the main structural scaffolds (the general structure of each group is shown in the second column of Table 1). Series A, B, and C were subdivided according to the S^4-aryl substituent, while D represents the different styryl groups at the C^2-quinazoline position.
# Herein, we used a kinase assay that contained fully expressed kinases with their regulatory domains, which are responsible for autoinhibition. The proteins are present in their unphosphorylated form and the procedure required supplementation with ATP. Importantly, autophosphorylation of ABL is dependent on […] concentration of the protein. Thus, our experimental conditions reflect the cellular process to be simulated. The luminescence signal detected after one hour of incubation with a peptide substrate was a measure of inhibition. Under these conditions, the question of whether the inhibitors tested bind to the ortho or allosteric site of the protein could be answered. […] To test this hypothesis, further molecular docking experiments were performed to more precisely determine the binding of the tested compounds to the ABL kinase.
# To determine the inhibition of non-receptor tyrosine kinases, assays were performed using the kinase selectivity system TK-2 and the ADP-Glo Kinase Assay (both from Promega). The protocol was previously developed by our group and described in reports[12]^,[36]. Experiments were performed at least four times. Data are expressed as percentage of tyrosine kinase inhibitory activity after treatment with the derivatives tested.
# CSK = target: T7, CSK (Homo sapiens, UniProt P41240); test: as above; assay type: biochemical; conditions: 1 h incubation, mean ± SD of four experiments
# T7 construct: purchased Promega
# Src = target: T8, Src (Homo sapiens, UniProt P12931); test: as above; assay type: biochemical; conditions: 1 h incubation, mean ± SD of four experiments
# T8 construct: purchased Promega
# MCF-7 = test: Cytotoxicity studies (MTS), antiproliferative activity; assay type: cell-based, human; conditions: Homo sapiens, MCF7; 72 h, MTS
# From the text: as §1, §2, §3
# T4 sequence (P00519 whole entry): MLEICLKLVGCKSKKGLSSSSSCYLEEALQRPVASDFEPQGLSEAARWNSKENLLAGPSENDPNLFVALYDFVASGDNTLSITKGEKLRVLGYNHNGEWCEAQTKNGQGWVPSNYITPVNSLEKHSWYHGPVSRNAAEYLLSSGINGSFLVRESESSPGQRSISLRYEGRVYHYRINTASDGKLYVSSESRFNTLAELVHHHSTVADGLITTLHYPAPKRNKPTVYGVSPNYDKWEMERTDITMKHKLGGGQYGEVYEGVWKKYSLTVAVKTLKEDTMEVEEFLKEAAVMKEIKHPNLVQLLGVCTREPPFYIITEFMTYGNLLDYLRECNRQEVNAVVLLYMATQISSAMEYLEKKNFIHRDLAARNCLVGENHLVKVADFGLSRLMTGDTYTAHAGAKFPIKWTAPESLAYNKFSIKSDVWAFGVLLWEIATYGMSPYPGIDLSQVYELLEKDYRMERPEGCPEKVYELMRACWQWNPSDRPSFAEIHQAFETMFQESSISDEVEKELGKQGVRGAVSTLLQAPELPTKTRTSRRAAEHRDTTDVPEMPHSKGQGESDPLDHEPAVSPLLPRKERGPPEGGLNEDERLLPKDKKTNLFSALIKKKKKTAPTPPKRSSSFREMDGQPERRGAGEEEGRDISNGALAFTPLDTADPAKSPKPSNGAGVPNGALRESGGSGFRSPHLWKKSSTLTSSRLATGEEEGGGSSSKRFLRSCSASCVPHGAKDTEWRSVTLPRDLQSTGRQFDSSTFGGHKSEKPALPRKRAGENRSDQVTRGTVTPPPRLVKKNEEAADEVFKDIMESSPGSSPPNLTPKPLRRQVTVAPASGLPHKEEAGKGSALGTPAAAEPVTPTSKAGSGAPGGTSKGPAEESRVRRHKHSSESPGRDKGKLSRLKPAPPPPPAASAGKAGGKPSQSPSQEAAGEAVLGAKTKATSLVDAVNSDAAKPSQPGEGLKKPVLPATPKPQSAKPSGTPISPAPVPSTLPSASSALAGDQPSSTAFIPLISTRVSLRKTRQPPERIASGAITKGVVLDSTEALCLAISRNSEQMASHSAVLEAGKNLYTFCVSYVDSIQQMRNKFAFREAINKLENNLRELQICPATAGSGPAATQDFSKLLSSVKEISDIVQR
# T5 sequence (P06239 whole entry): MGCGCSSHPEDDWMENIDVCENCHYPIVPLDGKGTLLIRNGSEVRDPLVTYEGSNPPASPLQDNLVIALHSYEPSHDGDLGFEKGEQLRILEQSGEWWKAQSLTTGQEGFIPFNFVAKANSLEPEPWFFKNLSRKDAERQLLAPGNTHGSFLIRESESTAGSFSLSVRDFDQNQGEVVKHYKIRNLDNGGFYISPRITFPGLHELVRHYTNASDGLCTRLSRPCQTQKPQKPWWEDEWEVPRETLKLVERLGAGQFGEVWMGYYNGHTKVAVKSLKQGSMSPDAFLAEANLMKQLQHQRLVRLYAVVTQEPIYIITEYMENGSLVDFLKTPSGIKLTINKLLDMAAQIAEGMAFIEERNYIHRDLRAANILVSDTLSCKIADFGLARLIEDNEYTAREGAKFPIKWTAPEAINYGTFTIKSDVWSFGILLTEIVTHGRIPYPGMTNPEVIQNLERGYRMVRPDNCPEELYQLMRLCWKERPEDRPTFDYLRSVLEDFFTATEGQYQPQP
# T7 sequence (P41240 whole entry): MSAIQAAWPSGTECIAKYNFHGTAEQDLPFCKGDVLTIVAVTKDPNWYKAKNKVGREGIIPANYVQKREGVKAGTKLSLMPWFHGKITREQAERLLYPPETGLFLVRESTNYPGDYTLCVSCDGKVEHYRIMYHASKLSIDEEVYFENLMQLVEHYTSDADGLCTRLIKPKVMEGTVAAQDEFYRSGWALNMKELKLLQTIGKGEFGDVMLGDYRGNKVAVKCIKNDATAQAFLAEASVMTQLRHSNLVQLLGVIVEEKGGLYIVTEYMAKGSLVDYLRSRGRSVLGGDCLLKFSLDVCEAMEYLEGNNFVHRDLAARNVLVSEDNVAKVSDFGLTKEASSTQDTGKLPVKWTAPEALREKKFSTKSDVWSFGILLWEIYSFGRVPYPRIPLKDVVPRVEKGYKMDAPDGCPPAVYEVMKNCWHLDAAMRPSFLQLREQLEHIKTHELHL
# T3 sequence (P07948 1-491 isoform P07948-2): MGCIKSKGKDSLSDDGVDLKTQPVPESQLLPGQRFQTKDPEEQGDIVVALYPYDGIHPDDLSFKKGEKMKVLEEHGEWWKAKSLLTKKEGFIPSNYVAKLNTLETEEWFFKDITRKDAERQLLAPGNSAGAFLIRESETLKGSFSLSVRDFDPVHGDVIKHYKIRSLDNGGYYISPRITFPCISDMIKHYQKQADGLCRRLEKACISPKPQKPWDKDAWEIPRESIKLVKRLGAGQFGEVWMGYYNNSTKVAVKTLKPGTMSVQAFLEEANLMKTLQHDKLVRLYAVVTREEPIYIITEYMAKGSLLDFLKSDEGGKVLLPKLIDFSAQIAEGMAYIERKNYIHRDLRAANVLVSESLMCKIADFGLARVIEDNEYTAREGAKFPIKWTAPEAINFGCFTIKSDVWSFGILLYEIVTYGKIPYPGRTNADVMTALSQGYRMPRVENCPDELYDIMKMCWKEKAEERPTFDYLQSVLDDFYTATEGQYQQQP
# T8 sequence (P12931 whole entry): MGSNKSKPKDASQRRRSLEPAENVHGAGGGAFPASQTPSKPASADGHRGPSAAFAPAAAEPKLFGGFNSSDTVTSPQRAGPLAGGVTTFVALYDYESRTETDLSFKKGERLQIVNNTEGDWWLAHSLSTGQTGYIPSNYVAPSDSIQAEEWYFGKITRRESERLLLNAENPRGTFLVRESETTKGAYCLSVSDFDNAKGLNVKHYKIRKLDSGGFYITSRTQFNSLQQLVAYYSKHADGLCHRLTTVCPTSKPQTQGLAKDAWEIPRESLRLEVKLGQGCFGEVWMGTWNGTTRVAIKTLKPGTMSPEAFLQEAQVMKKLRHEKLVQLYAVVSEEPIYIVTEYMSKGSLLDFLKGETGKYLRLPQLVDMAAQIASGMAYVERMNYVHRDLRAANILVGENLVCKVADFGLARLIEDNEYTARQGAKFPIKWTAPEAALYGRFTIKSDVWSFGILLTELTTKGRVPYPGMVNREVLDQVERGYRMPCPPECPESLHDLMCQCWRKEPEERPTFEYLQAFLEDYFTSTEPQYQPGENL
# T2 sequence (Q06187 whole entry): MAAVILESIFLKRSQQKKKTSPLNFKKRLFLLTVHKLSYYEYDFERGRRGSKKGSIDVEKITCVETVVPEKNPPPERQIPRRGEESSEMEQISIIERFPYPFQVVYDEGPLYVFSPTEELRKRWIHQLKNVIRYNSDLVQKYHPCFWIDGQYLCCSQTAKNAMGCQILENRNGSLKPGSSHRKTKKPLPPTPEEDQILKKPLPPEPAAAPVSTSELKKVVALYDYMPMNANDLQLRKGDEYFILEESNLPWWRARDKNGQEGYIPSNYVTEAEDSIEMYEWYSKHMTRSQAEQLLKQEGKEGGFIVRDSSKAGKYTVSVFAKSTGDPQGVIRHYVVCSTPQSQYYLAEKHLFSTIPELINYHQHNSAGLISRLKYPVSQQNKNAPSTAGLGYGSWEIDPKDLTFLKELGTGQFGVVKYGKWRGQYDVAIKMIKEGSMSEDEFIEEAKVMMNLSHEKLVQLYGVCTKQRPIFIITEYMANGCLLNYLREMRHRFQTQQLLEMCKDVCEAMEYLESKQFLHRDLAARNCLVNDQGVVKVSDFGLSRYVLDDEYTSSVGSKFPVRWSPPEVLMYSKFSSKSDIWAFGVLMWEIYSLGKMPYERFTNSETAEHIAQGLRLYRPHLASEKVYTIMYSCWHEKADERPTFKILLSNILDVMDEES
# T6 sequence (P06241 whole entry): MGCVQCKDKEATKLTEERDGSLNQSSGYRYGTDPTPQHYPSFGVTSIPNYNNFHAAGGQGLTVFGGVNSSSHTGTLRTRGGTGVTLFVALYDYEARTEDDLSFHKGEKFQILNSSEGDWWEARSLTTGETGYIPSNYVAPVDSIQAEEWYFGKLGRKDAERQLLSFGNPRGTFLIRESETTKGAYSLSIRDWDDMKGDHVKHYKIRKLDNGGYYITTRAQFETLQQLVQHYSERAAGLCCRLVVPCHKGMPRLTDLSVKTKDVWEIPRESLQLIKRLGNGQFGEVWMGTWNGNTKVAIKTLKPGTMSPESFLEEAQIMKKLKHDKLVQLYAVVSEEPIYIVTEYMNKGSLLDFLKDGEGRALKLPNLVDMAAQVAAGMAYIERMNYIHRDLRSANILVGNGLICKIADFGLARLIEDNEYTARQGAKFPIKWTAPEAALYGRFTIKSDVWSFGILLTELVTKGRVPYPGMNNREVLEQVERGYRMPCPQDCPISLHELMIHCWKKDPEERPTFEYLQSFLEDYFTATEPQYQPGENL
# T1 sequence (Q13882 whole entry): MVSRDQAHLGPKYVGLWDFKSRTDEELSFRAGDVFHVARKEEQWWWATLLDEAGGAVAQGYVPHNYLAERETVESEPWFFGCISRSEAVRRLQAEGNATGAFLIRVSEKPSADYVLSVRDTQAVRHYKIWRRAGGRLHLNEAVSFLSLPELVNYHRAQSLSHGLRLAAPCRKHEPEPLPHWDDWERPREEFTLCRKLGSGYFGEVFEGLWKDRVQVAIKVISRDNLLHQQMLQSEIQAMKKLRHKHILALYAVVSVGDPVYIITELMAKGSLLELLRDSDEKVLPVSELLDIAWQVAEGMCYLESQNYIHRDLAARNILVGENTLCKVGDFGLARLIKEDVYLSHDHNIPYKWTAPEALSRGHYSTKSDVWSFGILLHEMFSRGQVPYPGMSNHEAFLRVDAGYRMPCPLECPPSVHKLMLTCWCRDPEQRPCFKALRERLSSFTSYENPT
Compound,inhibition at 0.5 µM (BRK),IC50 (NHDF),Inhibition of tyrosine kinase activity [%] BTK (BTK; 0.5 μM),inhibition at 0.5 µM (BTK),inhibition at 0.5 µM (Lyn B),inhibition at 0.5 µM (ABL),IC50 (A549),IC50 (HCT 116 p53−/−),IC50 (PANC-1),IC50 (K562),IC50 (HCT 116 p53+/+),IC50 (U-251),inhibition at 0.5 µM (Lck),inhibition at 0.5 µM (Fyn A),inhibition at 0.5 µM (CSK),inhibition at 0.5 µM (Src),Inhibition of tyrosine kinase activity [%] ABL (ABL),IC50 (MCF-7),Inhibition of tyrosine kinase activity [%] Lyn B (Lyn B; 0.5 μM),Inhibition of tyrosine kinase activity [%] Src (Src; 0.5 μM)
"COc1ccccc1/C=C/c1nc(Sc2ccccc2Br)c2ccccc2n1 [IS4, 2-[(E)-2–(2-methoxyphenyl)ethenyl]-4–(2-bromophenylthio)quinazoline]",0%,> 25 µM,moderate activity,45.9 ± 7.54%,3.39 ± 0.47%,29.8 ± 0.95%,> 15 µM,> 10 µM,> 25 µM,> 15 µM,> 10 µM,> 15 µM,0%,34.1 ± 2.53%,17.4 ± 6.31%,18.5 ± 1.07%,,,,
"COc1ccccc1/C=C/c1nc(Sc2cc3c(cc2Br)OCO3)c2ccccc2n1 [IS11, 5-{2-[(E)-2–(2-methoxyphenyl)ethenyl]quinazolin-4-ylthio}-6-bromo-2H-1,3-benzodioxole]",0%,21.7 ± 1.53 µM,,2.87 ± 0.67%,0.86 ± 0.23%,18.4 ± 2.37%,> 5 µM,> 15 µM,> 10 µM,> 2.5 µM,> 15 µM,> 5 µM,0%,19.1 ± 3.57%,50.7 ± 5.6%,40.9 ± 1.77%,inactive,,,
"COc1ccccc1/C=C/c1nc(Sc2cc3c(cc2Br)OCO3)c2ccc(Cl)cc2n1 [IS15, 5-{2-[(E)-2–(2-methoxyphenyl)ethenyl]-7-chloroquinazolin-4-ylthio}-6-bromo-2H-1,3-benzodioxole]",27.2 ± 1.31%,> 25 µM,,39.3 ± 2.69%,32.3 ± 2.51%,41%,> 25 µM,> 25 µM,> 25 µM,21.2 ± 2.19 µM,> 25 µM,> 25 µM,51.5 ± 4.55%,57.5 ± 4.04%,33.1 ± 1.19%,53.4 ± 3.13%,41.81 ± 4.38%,> 25 µM,,
"COc1ccc(/C=C/c2nc(NCCCN(C)C)c3ccccc3n2)cc1 [CP-31398, N'-[2-[2–(4-methoxyphenyl)ethenyl]-4-quinazolinyl]-N,N-dimethyl-1,3-propanediamine dihydrochloride, reference compound]",,12.3 ± 0.54 µM,,36.8 ± 3.66%,,,> 25 µM,26.3 ± 1.41 µM,> 25 µM,3.09 ± 0.36 µM,18.6 ± 0.92 µM,18.8 ± 1.65 µM,,30.6 ± 7.83%,,,,27 ± 2.1 µM,,
"COc1cccc(Sc2nc(/C=C/c3ccccc3OC)nc3ccccc23)c1 [IS7, 2-[(E)-2–(2-methoxyphenyl)ethenyl]-4–(3-methoxyphenylthio)quinazoline]",0%,> 20 µM,,53.5 ± 1.33%,0%,45.9 ± 2.63%,> 15 µM,> 15 µM,> 15 µM,> 10 µM,> 15 µM,> 15 µM,0%,25.7 ± 2.29%,39.3 ± 4.74%,8.17 ± 1.71%,,,,
"COc1ccccc1/C=C/c1nc(Sc2ccc(SC)cc2)c2ccccc2n1 [IS9, 2-[(E)-2–(2-methoxyphenyl)ethenyl]-4-[4-(methylthio)phenylthio]quinazolin]",19.3 ± 4.65%,> 25 µM,,28.7 ± 2.94%,57%,35.9 ± 7.23%,> 15 µM,> 20 µM,> 25 µM,> 25 µM,> 20 µM,> 10 µM,60.7 ± 5.1%,52 ± 3.43%,39.2 ± 6.47%,54%,,,57.44 ± 1.76%,54.23 ± 3.07%
"COc1ccc(/C=C/c2nc(Sc3cc4c(cc3Br)OCO4)c3ccccc3n2)c(OC)c1 [IS17, 5-{2-[(E)-2–(2,4-dimethoxyphenyl)ethenyl]quinazolin-4-ylthio}-6-bromo-2H-1,3-benzodioxole]",0%,21.3 ± 0.8 µM,,9.58 ± 0.62%,0%,11.9 ± 2.86%,> 15 µM,> 15 µM,> 15 µM,> 10 µM,> 15 µM,20.2 ± 0.9 µM,0%,19.8 ± 3.51%,7.77 ± 3.16%,21 ± 1.82%,inactive,,,
